# Measurements as given in patent publication US20230233569A1 (Revolution Medicines, Inc., priority 2020, published 2023).
# pEC50, pIC50: −log10 of the molar value.
# Tests used:
# AsPC-1 (K-Ras G12D) [1] = test: Potency assay: pERK; assay type: cell-based; details: Homo sapiens, ASPC1, read-out: pERK EC50
# KRAS G12C = KRAS G12C (Homo sapiens, UniProt P01116+P62937, G12C); test: Ras-Raf disruption / FRET / MOA assay (BRAF RBD); assay type: biochemical; details: KRAS G12C FRET data IC50, Ras-Raf disruption, with Cyclophilin A
# Procedure, shortened: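 TR-FRET read-out after 1.5 h with anti-His Eu-W1024 (10 nM) and anti-GST APC (50 nM), following 3 h at 25 °C of compound (top 30 μM, 3-fold, 10 points) with 25 μM Cyclophilin A, 12.5 nM GMPPNP-loaded K-Ras G12C and 50 nM BRAF RBD; IC50 reported.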
# KRAS G13C = KRAS G13C (Homo sapiens, UniProt P01116+P62937, G13C); test: Ras-Raf disruption / FRET / MOA assay (BRAF RBD); assay type: biochemical; details: KRAS G13C FRET data IC50, Ras-Raf disruption, with Cyclophilin A
# Procedure, shortened: (§1)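 Compound-induced Ras–Cyclophilin A ternary complex disrupting BRAF RBD binding, read as IC50 from reduced TR-FRET ratio relative to DMSO. Final: Ras-GMPPNP 12.5 nM, BRAF RBD 50 nM, Cyclophilin A 25 μM, top compound 30 μM (3-fold, 10 points); 3 h at 25 °C, then 1.5 h with detection antibodies.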
# NRAS WT = NRAS WT (Homo sapiens, UniProt P01111+P62937); test: Ras-Raf disruption / FRET / MOA assay (BRAF RBD); assay type: biochemical
# Procedure, shortened: as §1
# NRAS Q61K = NRAS Q61K (Homo sapiens, UniProt P01111+P62937, Q61K); test: Ras-Raf disruption / FRET / MOA assay (BRAF RBD); assay type: biochemical
# Procedure, shortened: as §1
# KRAS G13D = KRAS G13D (Homo sapiens, UniProt P01116+P62937, G13D); test: Ras-Raf disruption / FRET / MOA assay (BRAF RBD); assay type: biochemical; details: KRAS G13D FRET data IC50, Ras-Raf disruption, with Cyclophilin A
# Procedure, shortened: as §1
# NRAS Q61R = NRAS Q61R (Homo sapiens, UniProt P01111+P62937, Q61R); test: Ras-Raf disruption / FRET / MOA assay (BRAF RBD); assay type: biochemical
# Procedure, shortened: as §1
# KRAS G12D = KRAS G12D (Homo sapiens, UniProt P01116+P62937, G12D); test: Ras-Raf disruption / FRET / MOA assay (BRAF RBD); assay type: biochemical; details: KRAS G12D FRET data IC50, Ras-Raf disruption, with Cyclophilin A
# Procedure, shortened: as §1
# KRAS WT = KRAS WT (Homo sapiens, UniProt P01116+P62937); test: Ras-Raf disruption / FRET / MOA assay (BRAF RBD); assay type: biochemical; details: KRAS WT FRET data IC50, Ras-Raf disruption, with Cyclophilin A
# Procedure, shortened: as §1
# KRAS Q61H = KRAS Q61H (Homo sapiens, UniProt P01116+P62937, Q61H); test: Ras-Raf disruption / FRET / MOA assay (BRAF RBD); assay type: biochemical
# Procedure, shortened: as §1
# KRAS G12S = KRAS G12S (Homo sapiens, UniProt P01116+P62937, G12S); test: Ras-Raf disruption / FRET / MOA assay (BRAF RBD); assay type: biochemical; details: KRAS G12S FRET data IC50, Ras-Raf disruption, with Cyclophilin A
# Procedure, shortened: as §1
# NRAS G12C = NRAS G12C (Homo sapiens, UniProt P01111+P62937, G12C); test: Ras-Raf disruption / FRET / MOA assay (BRAF RBD); assay type: biochemical; details: NRAS G12C FRET data IC50, NRAS G12C
# Procedure, shortened: as §1
# KRAS G12V = KRAS G12V (Homo sapiens, UniProt P01116+P62937, G12V); test: Ras-Raf disruption / FRET / MOA assay (BRAF RBD); assay type: biochemical; details: KRAS G12V FRET data IC50, Ras-Raf disruption, with Cyclophilin A
# Procedure, shortened: as §1
# AsPC-1 (K-Ras G12D) [2] = test: CellTiter-Glo cell viability assay; assay type: cell-based; details: Homo sapiens, ASPC1, 120 h, read-out: AsPC-1 Cell Viability assay data IC50, K-Ras G12D, 5-day treatment
# Procedure, shortened: (§2)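 Luminescent viability readout on day 5, plates first brought to room temperature for ~30 min; compounds added straight to plated RAS-mutant cells. Values expressed as percent of mean DMSO signal, curves fitted with a four-parameter logistic model.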
# NCI-H358 (K-Ras G12C) = test: CellTiter-Glo cell viability assay; assay type: cell-based; details: Homo sapiens, NCI-H358, 120 h, read-out: H358 Cell Viability assay data IC50, K-Ras G12C, 5-day treatment
# Procedure, shortened: as §2
# NRAS G12C, sequence (P01111 whole entry G12C): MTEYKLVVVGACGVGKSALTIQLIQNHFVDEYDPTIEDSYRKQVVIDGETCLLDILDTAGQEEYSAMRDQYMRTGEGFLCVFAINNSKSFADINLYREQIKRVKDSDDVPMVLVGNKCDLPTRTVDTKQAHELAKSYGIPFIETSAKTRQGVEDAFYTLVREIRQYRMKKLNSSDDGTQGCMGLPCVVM
# NRAS G12C, sequence (P62937 whole entry): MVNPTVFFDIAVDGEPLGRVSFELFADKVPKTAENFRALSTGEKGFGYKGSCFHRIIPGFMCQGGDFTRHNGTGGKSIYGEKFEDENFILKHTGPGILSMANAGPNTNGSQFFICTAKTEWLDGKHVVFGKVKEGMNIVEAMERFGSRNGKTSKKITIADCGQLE
# KRAS G12C, sequence (P01116 1-169 isoform P01116-2 G12C limits assumed): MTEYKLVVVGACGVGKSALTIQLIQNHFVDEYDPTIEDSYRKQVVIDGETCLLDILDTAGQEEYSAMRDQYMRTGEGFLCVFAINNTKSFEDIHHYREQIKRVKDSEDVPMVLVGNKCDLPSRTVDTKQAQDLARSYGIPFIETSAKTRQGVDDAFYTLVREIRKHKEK
# KRAS G12C, sequence (P62937 whole entry): as the sequence (P62937 whole entry) above
# KRAS Q61H, sequence (P01116 1-169 isoform P01116-2 Q61H limits assumed): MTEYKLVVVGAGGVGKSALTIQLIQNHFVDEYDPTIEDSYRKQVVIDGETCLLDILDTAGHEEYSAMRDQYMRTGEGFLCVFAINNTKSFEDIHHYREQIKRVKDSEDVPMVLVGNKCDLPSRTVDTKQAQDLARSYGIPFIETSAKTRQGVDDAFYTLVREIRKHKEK
# KRAS Q61H, sequence (P62937 whole entry): as the sequence (P62937 whole entry) above
# KRAS WT, sequence (P01116 1-169 isoform P01116-2 limits assumed): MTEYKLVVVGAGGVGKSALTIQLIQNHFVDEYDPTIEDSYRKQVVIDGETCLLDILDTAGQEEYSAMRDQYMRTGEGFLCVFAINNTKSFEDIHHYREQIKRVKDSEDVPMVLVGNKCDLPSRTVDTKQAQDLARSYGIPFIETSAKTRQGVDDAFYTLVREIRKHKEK
# KRAS WT, sequence (P62937 whole entry): as the sequence (P62937 whole entry) above
# NRAS WT, sequence (P01111 whole entry): as the sequence (P01111 whole entry G12C) above, with C12G counted along it
# NRAS WT, sequence (P62937 whole entry): as the sequence (P62937 whole entry) above
# KRAS G13D, sequence (P01116 1-169 isoform P01116-2 G13D limits assumed): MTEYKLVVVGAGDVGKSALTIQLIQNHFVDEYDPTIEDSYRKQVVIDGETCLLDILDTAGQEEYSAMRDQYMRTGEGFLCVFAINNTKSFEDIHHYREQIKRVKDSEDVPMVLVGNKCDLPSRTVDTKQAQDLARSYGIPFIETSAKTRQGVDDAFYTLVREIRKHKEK
# KRAS G13D, sequence (P62937 whole entry): as the sequence (P62937 whole entry) above
# NRAS Q61K, sequence (P01111 whole entry Q61K): as the sequence (P01111 whole entry G12C) above, with C12G, Q61K counted along it
# NRAS Q61K, sequence (P62937 whole entry): as the sequence (P62937 whole entry) above
# KRAS G12S, sequence (P01116 1-169 isoform P01116-2 G12S limits assumed): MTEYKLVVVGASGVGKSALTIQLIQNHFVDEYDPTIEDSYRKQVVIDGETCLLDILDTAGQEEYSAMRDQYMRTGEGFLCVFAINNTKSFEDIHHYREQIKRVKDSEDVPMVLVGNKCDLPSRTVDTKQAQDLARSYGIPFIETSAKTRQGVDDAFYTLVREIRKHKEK
# KRAS G12S, sequence (P62937 whole entry): as the sequence (P62937 whole entry) above
# NRAS Q61R, sequence (P01111 whole entry Q61R): as the sequence (P01111 whole entry G12C) above, with C12G, Q61R counted along it
# NRAS Q61R, sequence (P62937 whole entry): as the sequence (P62937 whole entry) above
# KRAS G12V, sequence (P01116 1-169 isoform P01116-2 G12V limits assumed): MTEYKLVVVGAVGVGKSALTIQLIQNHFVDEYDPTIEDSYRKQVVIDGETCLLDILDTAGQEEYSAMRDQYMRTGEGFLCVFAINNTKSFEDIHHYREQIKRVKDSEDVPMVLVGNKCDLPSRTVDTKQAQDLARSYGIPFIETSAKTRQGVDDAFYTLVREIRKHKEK
# KRAS G12V, sequence (P62937 whole entry): as the sequence (P62937 whole entry) above
# KRAS G12D, sequence (P01116 1-169 isoform P01116-2 G12D limits assumed): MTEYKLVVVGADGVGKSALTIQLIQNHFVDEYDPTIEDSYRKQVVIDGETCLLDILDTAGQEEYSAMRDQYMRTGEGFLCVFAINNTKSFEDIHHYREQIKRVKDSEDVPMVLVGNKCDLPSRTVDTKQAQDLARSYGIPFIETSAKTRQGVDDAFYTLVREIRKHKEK
# KRAS G12D, sequence (P62937 whole entry): as the sequence (P62937 whole entry) above
# KRAS G13C, sequence (P01116 1-169 isoform P01116-2 G13C limits assumed): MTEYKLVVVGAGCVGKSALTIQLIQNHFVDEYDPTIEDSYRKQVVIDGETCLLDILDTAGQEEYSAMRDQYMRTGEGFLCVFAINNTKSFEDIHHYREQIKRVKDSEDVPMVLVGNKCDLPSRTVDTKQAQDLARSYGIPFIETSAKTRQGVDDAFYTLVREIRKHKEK
# KRAS G13C, sequence (P62937 whole entry): as the sequence (P62937 whole entry) above
SMILES,pEC50 (AsPC-1 (K-Ras G12D) [1]),pIC50 (KRAS G12C),pIC50 (KRAS G13C),pIC50 (NRAS WT),pIC50 (NRAS Q61K),pIC50 (KRAS G13D),pIC50 (NRAS Q61R),pIC50 (KRAS G12D),pIC50 (KRAS WT),pIC50 (KRAS Q61H),pIC50 (KRAS G12S),pIC50 (NRAS G12C),pIC50 (KRAS G12V),pIC50 (AsPC-1 (K-Ras G12D) [2]),pIC50 (NCI-H358 (K-Ras G12C))
CCn1c(-c2cccnc2[C@H](C)OC)c2c3cc(ccc31)-c1cc(O)cc(c1)C[C@H](NC(=O)[C@H](C(C)C)N(C)C(=O)CN(C)C(=O)[C@@H]1CN1C1COC1)C(=O)N1CCC[C@H](N1)C(=O)OCC(C)(C)C2 (stereo partly drawn) [Example 276],> 5.30,7.00 to 8.00,7.00 to 8.00,7.00 to 8.00,6.00 to 7.00,7.00 to 8.00,6.00 to 7.00,7.00 to 8.00,7.00 to 8.00,7.00 to 8.00,7.00 to 8.00,> 8.00,7.00 to 8.00,5.00 to 6.00,7.00 to 8.00
CCn1c(-c2cccnc2[C@H](C)OC)c2c3cc(ccc31)-c1cc(O)cc(c1)C[C@H](NC(=O)[C@H](C(C)C)N(C)C(=O)CN(C)C(=O)[C@H]1CN1CC1COC1)C(=O)N1CCC[C@H](N1)C(=O)OCC(C)(C)C2 (stereo partly drawn) [Example 277],> 5.30,7.00 to 8.00,7.00 to 8.00,6.00 to 7.00,6.00 to 7.00,6.00 to 7.00,5.00 to 6.00,6.00 to 7.00,6.00 to 7.00,7.00 to 8.00,7.00 to 8.00,7.00 to 8.00,6.00 to 7.00,6.00 to 7.00,7.00 to 8.00
CCn1c(-c2cccnc2[C@H](C)OC)c2c3cc(ccc31)-c1cc(O)cc(c1)C[C@H](NC(=O)[C@H](C(C)C)N(C)C(=O)CN(C)C(=O)[C@H]1CN1CC1(C)COC1)C(=O)N1CCC[C@H](N1)C(=O)OCC(C)(C)C2 (stereo partly drawn) [Example 279],> 5.30,7.00 to 8.00,7.00 to 8.00,7.00 to 8.00,6.00 to 7.00,6.00 to 7.00,6.00 to 7.00,6.00 to 7.00,7.00 to 8.00,7.00 to 8.00,7.00 to 8.00,7.00 to 8.00,7.00 to 8.00,6.00 to 7.00,> 8.00
CCn1c(-c2cccnc2[C@H](C)OC)c2c3cc(ccc31)-c1cc(O)cc(c1)C[C@H](NC(=O)[C@H](C(C)C)N(C)C(=O)CN(C)C(=O)[C@@H]1CN1CC1(C)COC1)C(=O)N1CCC[C@H](N1)C(=O)OCC(C)(C)C2 (stereo partly drawn) [Example 280],> 5.30,> 8.00,7.00 to 8.00,7.00 to 8.00,6.00 to 7.00,6.00 to 7.00,6.00 to 7.00,7.00 to 8.00,7.00 to 8.00,7.00 to 8.00,7.00 to 8.00,> 8.00,7.00 to 8.00,5.00 to 6.00,> 8.00
CCn1c(-c2cccnc2[C@H](C)OC)c2c3cc(ccc31)-c1cc(O)cc(c1)C[C@H](NC(=O)[C@H](C(C)C)N(C)C(=O)CN(C)C(=O)[C@@H]1N[C@H]1C1COC1)C(=O)N1CCC[C@H](N1)C(=O)OCC(C)(C)C2 [Example 283],> 5.30,7.00 to 8.00,> 8.00,7.00 to 8.00,6.00 to 7.00,7.00 to 8.00,6.00 to 7.00,7.00 to 8.00,7.00 to 8.00,7.00 to 8.00,7.00 to 8.00,7.00 to 8.00,7.00 to 8.00,6.00 to 7.00,7.00 to 8.00
CCn1c(-c2cccnc2[C@H](C)OC)c2c3cc(ccc31)-c1cc(O)cc(c1)C[C@H](NC(=O)[C@H](C(C)C)N(C)C(=O)CN(C)C(=O)[C@@H]1N[C@@H]1C1CCC1)C(=O)N1CCC[C@H](N1)C(=O)OCC(C)(C)C2 [Example 287],> 5.30,7.00 to 8.00,7.00 to 8.00,7.00 to 8.00,6.00 to 7.00,6.00 to 7.00,6.00 to 7.00,7.00 to 8.00,7.00 to 8.00,7.00 to 8.00,7.00 to 8.00,7.00 to 8.00,7.00 to 8.00,6.00 to 7.00,7.00 to 8.00
